Results published in US8114850B2, “Antiproliferative activity of G-rich oligonucleotides and method of using same to bind to nucleolin” (Advanced Cancer Therapeutics, LLC, priority 1999, dated 2012).

What was measured:
[1] = Stability in serum; type: in vitro ADME
Description: The effects of four G-rich phosphodiester oligonucleotides (GROs) on the growth of tumor cells in culture were tested. These oligonucleotides consisted entirely of deoxyguanosine and thymidine and contained at least two contiguous guanosines. For increased stability to serum nucleases, oligonucleotides were modified at the 3′-terminus with a propylamino group. This modification protects the oligonucleotides from degradation in serum containing medium for at least twenty-four hours.

[2] = system: tumor cells; assay: In-vitro experiments with SEQ ID NO:12 in tumor cells; type: cell-based
Excerpt: SEQ ID NO: 12, a G-rich oligonucleotide (GRO) aptamer comprising a single-strand oligonucleotide of 26 bases, was selected for the study. […] Preclinical data indicates potential of SEQ ID NO: 12 against a wide variety of solid and hematologic malignancies.

[3] = system: advanced, metastatic RCC (renal-cell carcinoma); assay: Phase 1 study, RCC patients; type: in vivo, human
Description: (§1) A Phase 1, open label, non-randomized dose escalation study of SEQ ID NO:12 was conducted on 17 human individuals with various advanced malignancies. […] After these 17 individuals had received treatment, only individuals with RCC (renal-cell carcinoma) or non-small-cell lung cancer (NSCLC) were enrolled in the clinical trial to obtain data for more homogenous patient populations and thereby enhance the quality of the results.
Following these findings, the trial was extended to include additional individuals (“patients”) with RCC (renal-cell carcinoma) or non-small-cell lung cancer. All of said individuals had progressive, metastatic cancers upon entry to the study. It should be noted that none of the individuals had received chemotherapy, radiotherapy or any investigational agent for cancer within the 4 weeks prior to entry to the study or 6 weeks prior for nitrosourea or mitomycin C. All individuals enrolled in the study were evaluable for toxicity and response and had measurable disease, i.e. able to be measured accurately in one or more dimension(s). Participants of the study were recruited at one site: the University of Louisville, James Brown Cancer Center, in Louisville, Ky., USA. The study was conducted in accordance with Good Clinical Practices and the Declaration of Helsinki. Institutional Review Board approval and informed patient consent were obtained before the study began.
(§2) The SEQ ID NO:12 aptamer was administered to individuals as a continuous intravenous infusion. All individuals received one or two cycles of treatment. The dose escalation protocol provided a division of the subjects into cohorts of 3 in sequential order. If no individuals in a cohort experienced DLT within […] of treatment, the dosage was escalated to the next level. The dosage was increased up to 10 mg/kg/day for 7 days in the first 17 individuals and increased up to 40 mg/kg/day for 7 days in the RCC/NSCLC extension. The original starting dose was about 1 mg/kg/day for 4 days for both sets of individuals.
If no subject in the first cohort experienced DLT within 14 days of treatment, the dose for the next cohort was escalated to the next level. […] For this study, DLT was identified as grade 3-4 non-hematological toxicity, grade 4 hematological toxicity that persisted for 3 or more days, grade 4 febrile neutropenia, or grade 4 thrombocytopenia with bleeding. Toxicity was graded according to the National Cancer Institute Common Terminology for Adverse Events (“NCI-CTCAE”) version 3.0.
Dose escalation was accomplished by doubling until a biological effect was noted (i.e., by development of NCI-CTCAE grade 2 toxicity), at which point the dose was escalated using a modified Fibonacci design (dose increments to 1.6 times the pervious dose level). The maximum dose for the study was 40 mg/kg/day.
(§3) Baseline evaluations included medical history, 12-lead electrocardiogram, safety assessments and tumor measurements within 1 week of the start of the study. Individuals were monitored in the hospital during infusion of the SEQ ID NO:12 aptamer (days 1-8) and then evaluated subsequently on days 15, 29 and 58.
Efficacy was assessed by tumor measurements and radiological evaluation at baseline ([…] to the start of the study), at day 29 and day 58.
Tumor measurements were conducted using photographs (skin lesions), chest X-rays, CT scans, magnetic resonance imaging (MRI) and ultrasound. The assessments of tumor measurements were conducted using the Response Evaluation Criteria in Solid Tumors (RECIST) guidelines. See Arbuck et al., (2000) Journal Nat'l Cancer Inst., 92: 205-16. All tumor measurements were taken in metric notation using a ruler or caliper.
As a preliminary note, tumor response was evaluated using RECIST guidelines and categorized as complete response (CR), partial response (PR), stable disease (SD) or progressive disease (PD). […]

[4] = system: non-small-cell lung cancer (NSCLC); assay: Phase 1 study, NSCLC patients; type: in vivo, human; conditions: RECIST
Description: as §1
Following these findings, the trial was extended to include additional individuals (“patients”) with RCC (renal-cell carcinoma) or non-small-cell lung cancer. All of said individuals had progressive, metastatic cancers upon entry to the study. […] All individuals enrolled in the study were evaluable for toxicity and response and had measurable disease, i.e. able to be measured accurately in one or more dimension(s). […]
as §3
Efficacy was assessed by tumor measurements and radiological evaluation at baseline ([…] to the start of the study), at day 29 and day 58. […]

[5] = Phase 1 study, toxicity; type: in vivo, human; conditions: doses up to 40 mg/kg/day for up to 7 days, continuous i.v. infusion
Description: as §2
If no subject in the first cohort experienced DLT within 14 days of treatment, the dose for the next cohort was escalated to the next level. […] For this study, DLT was identified as grade 3-4 non-hematological toxicity, grade 4 hematological toxicity that persisted for 3 or more days, grade 4 febrile neutropenia, or grade 4 thrombocytopenia with bleeding. […]
as §3

[6] = biological target: T1, G-rich oligonucleotide binding protein / nucleolin (Homo sapiens, UniProt P19338); assay: Protein binding, summary statements (EMSA); conditions: characterization of the aptamer
T1 construct: endogenous in cells; MDA-MB-231)
T1 sequence (P19338 whole entry): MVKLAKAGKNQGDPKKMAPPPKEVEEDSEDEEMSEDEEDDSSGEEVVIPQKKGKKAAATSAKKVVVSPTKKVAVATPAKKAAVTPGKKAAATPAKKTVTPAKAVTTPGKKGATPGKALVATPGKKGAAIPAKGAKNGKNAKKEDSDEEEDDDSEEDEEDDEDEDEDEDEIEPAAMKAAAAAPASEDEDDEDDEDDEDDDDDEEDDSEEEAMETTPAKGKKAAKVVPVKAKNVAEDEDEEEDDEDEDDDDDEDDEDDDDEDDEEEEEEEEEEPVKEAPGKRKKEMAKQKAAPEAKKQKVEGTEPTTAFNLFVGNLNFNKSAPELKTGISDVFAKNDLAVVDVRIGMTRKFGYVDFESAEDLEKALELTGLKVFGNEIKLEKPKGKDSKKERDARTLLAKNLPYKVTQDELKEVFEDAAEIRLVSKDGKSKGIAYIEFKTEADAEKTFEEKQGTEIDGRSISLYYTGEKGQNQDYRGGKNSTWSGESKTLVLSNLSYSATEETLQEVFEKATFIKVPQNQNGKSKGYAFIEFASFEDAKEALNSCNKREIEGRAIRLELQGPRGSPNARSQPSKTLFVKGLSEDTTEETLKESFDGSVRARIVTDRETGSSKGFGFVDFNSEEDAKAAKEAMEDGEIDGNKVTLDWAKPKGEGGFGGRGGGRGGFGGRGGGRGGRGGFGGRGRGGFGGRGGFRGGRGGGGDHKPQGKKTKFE
Excerpt: By G-rich oligonucleotide (GRO) it is meant that the oligonucleotides consist of 4-100 nucleotides (preferably 10-30 nucleotides) with DNA, RNA, 2′-O-methyl, phosphorothioate or other chemically similar backbones. Their sequences contain one or more GGT motifs. The oligonucleotides have antiproliferative activity against cells and bind to GRO binding protein and/or nucleolin.
Additionally, the present invention provides a method for selecting oligonucleotides that bind to nucleolin. The method utilizes an electrophoretic mobility shift assay (EMSA), as described below, to screen for oligonucleotides that bind strongly to nucleolin and which, therefore, would be expected, according to the present invention, to have anti-proliferative activity. Oligonucleotides to be screened as potential antiproliferative agents are labeled and then incubated with nuclear extracts in the absence or presence of unlabeled competitor oligonucleotide and are allowed to react. The reaction mixtures are then electrophoresed and mobility shifts and/or bond intensity can be used to identify those oligonucleotides which have bound to the specific protein.
Alternatively, unlabeled compounds to be screened are incubated with nuclear extracts in the presence of labeled oligonucleotide (for example 5′-TTAGGGTTAGGGTTAGGG TTAGGG) (SEQ ID NO: 20) and binding is assessed by a decrease in the intensity of the shifted band, as in FIG. 6B.

5′-GGTGGTGGTGGTTGTGGTGG TGGTGG-3′ [SEQ ID NO:12]
stability in serum [1]: extremely stable and resistant to degradation by serum enzymes | anti-proliferative response in tumor cells [2]: strong anti-proliferative response | metastasis, first RCC responder ([3]; 18 months after treatment): single brain metastasis | disease status, first RCC responder ([3]; 26 months after one seven-day infusion at 10 mg/kg): no evidence of disease | clinical benefit (CR+PR+SD) ([3]; RCC patients, RECIST): 75% | response rate (CR+PR) ([3]; RCC patients, continuous i.v. infusion, up to 40 mg/kg/day for up to 7 days, RECIST): 17% | complete response ([3]; RCC subjects, RECIST): 8.4% | partial response ([3]; RCC subjects, RECIST): 8.4% | stable disease for the duration of the study ([3]; RCC subjects, RECIST): 58% | decrease in the sum of greatest linear dimensions of target lesions from baseline ([3]; second RCC responder, two seven-day infusions at 22 mg/kg): about 70% | stable disease for the duration of the study [4]: 40% | tolerability / toxicity [5]: well tolerated with no serious toxicity of any type related to drug administration | specificity of binding [6]: specificity for nucleolin
